How the values were obtained:
[1] = target: T1, C-C chemokine receptor type 4 (Homo sapiens, UniProt P51679); type: cell membranes, Chem-1, Membrane; conditions: chem-1; also: in other assays of this panel Not Active means under 50% inhibition at 10 µM
T1 sequence (P51679 whole entry): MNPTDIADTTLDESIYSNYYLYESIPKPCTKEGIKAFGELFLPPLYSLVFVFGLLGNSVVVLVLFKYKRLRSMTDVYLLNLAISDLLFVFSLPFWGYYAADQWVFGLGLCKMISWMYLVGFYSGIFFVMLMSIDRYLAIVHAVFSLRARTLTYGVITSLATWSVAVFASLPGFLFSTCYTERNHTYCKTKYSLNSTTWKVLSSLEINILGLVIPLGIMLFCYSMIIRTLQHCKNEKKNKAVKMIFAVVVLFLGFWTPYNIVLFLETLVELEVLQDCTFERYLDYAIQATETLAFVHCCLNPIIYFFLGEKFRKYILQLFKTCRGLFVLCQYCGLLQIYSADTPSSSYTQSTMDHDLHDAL

[2] = target: T2, C-X-C chemokine receptor type 2 (Homo sapiens, UniProt P25025); type: cell membranes, CHO-K1, Membrane; conditions: cho-k1; also: in other assays of this panel Not Active means under 50% inhibition at 10 µM
T2 sequence (P25025 whole entry): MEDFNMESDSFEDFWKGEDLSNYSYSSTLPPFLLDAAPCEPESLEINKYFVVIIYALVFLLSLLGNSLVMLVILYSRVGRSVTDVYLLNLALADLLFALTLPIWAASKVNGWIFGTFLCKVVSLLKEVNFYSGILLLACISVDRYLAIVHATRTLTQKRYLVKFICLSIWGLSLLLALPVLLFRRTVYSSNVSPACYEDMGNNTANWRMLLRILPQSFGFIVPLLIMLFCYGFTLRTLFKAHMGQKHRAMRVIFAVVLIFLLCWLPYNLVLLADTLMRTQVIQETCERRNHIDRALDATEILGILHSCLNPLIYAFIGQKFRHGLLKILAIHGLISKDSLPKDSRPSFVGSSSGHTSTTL

[3] = target: Platelet-activating factor receptor (Homo sapiens, UniProt P25105); type: tissue-based; also: in other assays of this panel Not Active means under 50% inhibition at 10 µM
D(4) dopamine receptor = target: T3, D(4) dopamine receptor (Homo sapiens, UniProt P21917); experiment: DRUGMATRIX: Dopamine D4.2 radioligand binding (ligand: [3H] Spiperone); type: cell membranes, CHO-K1, Membrane; conditions: cho-k1; Not Active = under 50% inhibition at 10 µM
T3 sequence (P21917 whole entry): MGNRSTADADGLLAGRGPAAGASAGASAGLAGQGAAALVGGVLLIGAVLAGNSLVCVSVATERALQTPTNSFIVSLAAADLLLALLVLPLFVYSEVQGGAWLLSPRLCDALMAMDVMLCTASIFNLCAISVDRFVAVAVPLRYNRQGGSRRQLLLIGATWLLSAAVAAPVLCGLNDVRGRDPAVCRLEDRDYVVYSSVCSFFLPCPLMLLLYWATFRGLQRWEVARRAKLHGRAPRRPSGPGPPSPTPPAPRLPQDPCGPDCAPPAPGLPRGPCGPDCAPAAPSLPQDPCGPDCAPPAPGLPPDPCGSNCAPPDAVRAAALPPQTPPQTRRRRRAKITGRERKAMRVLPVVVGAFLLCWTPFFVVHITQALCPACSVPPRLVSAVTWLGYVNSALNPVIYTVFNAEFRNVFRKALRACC

[4] = target: T4, Alpha-2C adrenergic receptor (Homo sapiens, UniProt P18825); experiment: DRUGMATRIX: Adrenergic Alpha-2C radioligand binding (ligand: [3H] MK-912); type: cell membranes, Sf9, Membrane; conditions: sf9
T4 sequence (P18825 whole entry): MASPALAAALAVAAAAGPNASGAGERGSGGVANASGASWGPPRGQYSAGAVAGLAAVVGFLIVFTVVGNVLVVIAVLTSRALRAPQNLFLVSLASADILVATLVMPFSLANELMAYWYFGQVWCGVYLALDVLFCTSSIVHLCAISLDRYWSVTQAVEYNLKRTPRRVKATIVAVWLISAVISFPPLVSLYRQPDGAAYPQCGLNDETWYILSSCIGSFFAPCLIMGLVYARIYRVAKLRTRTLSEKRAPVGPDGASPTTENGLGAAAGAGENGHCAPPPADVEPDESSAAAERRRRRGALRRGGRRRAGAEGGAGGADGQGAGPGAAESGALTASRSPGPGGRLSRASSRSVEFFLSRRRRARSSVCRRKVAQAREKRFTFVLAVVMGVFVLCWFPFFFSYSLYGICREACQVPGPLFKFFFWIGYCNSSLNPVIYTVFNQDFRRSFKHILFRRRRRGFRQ

[5] = target: Vascular endothelial growth factor receptor 1 (Homo sapiens, UniProt P17948); type: cell-based; conditions: huvec; also: in other assays of this panel Not Active means under 50% inhibition at 10 µM
[6] = DRUGMATRIX: ATPase, Na+/K+ enzyme inhibition (substrate: ATP); type: tissue-based, Sus scrofa, Heart; conditions: Not Active = under 50% inhibition at 10 µM
[7] = target: Aldo-keto reductase family 1 member B1 (Rattus norvegicus, UniProt P07943); experiment: biochemical; type: tissue-based, Lens of camera-type eye

Chain of Platelet-activating factor receptor (P25105 whole entry): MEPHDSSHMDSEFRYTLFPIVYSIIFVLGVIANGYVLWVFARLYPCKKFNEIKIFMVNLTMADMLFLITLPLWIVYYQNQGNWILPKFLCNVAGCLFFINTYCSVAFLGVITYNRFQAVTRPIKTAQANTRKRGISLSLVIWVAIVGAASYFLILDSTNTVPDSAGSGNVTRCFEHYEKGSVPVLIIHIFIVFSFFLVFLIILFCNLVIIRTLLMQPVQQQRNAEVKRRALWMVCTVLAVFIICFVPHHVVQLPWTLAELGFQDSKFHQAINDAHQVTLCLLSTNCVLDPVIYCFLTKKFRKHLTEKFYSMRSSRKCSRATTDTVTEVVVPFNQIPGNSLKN
Chain of Vascular endothelial growth factor receptor 1 (P17948 whole entry): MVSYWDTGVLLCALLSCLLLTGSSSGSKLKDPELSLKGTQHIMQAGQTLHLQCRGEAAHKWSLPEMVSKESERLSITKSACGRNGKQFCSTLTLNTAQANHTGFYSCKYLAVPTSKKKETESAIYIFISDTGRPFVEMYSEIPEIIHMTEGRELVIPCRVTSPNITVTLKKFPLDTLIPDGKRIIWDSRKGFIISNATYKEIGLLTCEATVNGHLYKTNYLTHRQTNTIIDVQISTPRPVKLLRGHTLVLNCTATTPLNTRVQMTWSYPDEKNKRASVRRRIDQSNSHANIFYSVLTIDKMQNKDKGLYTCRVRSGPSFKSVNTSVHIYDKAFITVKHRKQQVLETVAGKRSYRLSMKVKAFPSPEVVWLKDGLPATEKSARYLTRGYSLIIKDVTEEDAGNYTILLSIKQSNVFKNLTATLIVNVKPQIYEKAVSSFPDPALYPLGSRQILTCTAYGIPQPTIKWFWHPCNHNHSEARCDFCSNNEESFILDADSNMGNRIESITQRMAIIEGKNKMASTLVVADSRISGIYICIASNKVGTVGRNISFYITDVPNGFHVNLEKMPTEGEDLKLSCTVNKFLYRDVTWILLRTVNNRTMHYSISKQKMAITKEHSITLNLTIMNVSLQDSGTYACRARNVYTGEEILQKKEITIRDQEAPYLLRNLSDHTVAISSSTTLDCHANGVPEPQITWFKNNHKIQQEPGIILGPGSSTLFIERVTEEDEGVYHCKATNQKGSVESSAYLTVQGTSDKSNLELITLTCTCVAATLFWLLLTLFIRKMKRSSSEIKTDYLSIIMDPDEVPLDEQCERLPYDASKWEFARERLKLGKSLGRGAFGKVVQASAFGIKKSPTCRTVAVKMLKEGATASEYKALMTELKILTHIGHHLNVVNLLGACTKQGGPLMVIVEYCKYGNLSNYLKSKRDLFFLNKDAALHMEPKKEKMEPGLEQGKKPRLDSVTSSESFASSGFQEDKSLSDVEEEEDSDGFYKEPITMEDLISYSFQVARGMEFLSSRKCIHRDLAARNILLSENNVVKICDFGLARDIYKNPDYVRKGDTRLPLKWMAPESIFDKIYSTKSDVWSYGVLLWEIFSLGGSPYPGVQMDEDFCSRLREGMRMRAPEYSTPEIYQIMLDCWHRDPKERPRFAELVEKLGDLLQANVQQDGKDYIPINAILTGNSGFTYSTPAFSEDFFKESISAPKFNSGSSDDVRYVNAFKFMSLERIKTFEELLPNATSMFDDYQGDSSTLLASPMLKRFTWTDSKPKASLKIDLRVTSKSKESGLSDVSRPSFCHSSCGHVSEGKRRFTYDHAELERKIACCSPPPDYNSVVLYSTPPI

C=C(Cl)Cl [1,1-DICHLOROETHENE]
Not Active: IC50 [1] | IC50 [2] | IC50 [3] | IC50 (D(4) dopamine receptor) | IC50 [4] | IC50 [5] | IC50 [6] | Ki [6] | IC50 [7]

Nc1ccc(Cc2ccc(N)cc2)cc1
Not Active: IC50 [1] | IC50 [2] | IC50 [3] | IC50 (D(4) dopamine receptor) | IC50 [4] | IC50 [5] | IC50 [6] | Ki [6] | IC50 [7]

Nc1nc(N)c2nc(CNc3ccc(C(=O)N[C@@H](CCC(=O)O)C(=O)O)cc3)cnc2n1 [AMINOPTERIN]
Not Active: IC50 [1] | IC50 [2] | IC50 [3] | IC50 (D(4) dopamine receptor) | IC50 [4] | IC50 [5] | IC50 [6] | Ki [6] | IC50 [7]

CCN(CCO)CCCC(C)Nc1ccnc2cc(Cl)ccc12 (stereo unspecified) [HYDROXYCHLOROQUINE]
Not Active: IC50 [1] | IC50 [2] | IC50 [3] | IC50 (D(4) dopamine receptor) | IC50 [4] | IC50 [5] | IC50 [6] | Ki [6] | IC50 [7]

COPPER(II) OXIDE
Not Active: IC50 [1] | Ki [1] | IC50 [2] | Ki [2] | IC50 [3] | Ki [3] | IC50 (D(4) dopamine receptor) | Ki (D(4) dopamine receptor) | IC50 [4] | Ki [4] | IC50 [5] | Ki [5] | IC50 [6] | Ki [6] | IC50 [7] | Ki [7]

CN(CCOc1ccc(C[C@H](Nc2ccccc2C(=O)c2ccccc2)C(=O)O)cc1)c1ccccn1
Not Active: IC50 [1] | IC50 [2] | IC50 [3] | IC50 (D(4) dopamine receptor) | IC50 [4] | IC50 [5] | IC50 [6] | Ki [6] | IC50 [7]

COc1cc([C@@H]2c3cc4c(cc3[C@H](O)[C@H]3COC(=O)[C@H]23)OCO4)cc(OC)c1OC [PODOFILOX]
Not Active: IC50 [1] | IC50 [2] | IC50 [3] | IC50 (D(4) dopamine receptor) | IC50 [4] | IC50 [5] | IC50 [6] | Ki [6] | IC50 [7]

ClC1=C(Cl)[C@]2(Cl)[C@@H]3[C@@H]4C[C@@H]([C@H]5O[C@@H]45)[C@@H]3[C@@]1(Cl)C2(Cl)Cl [DIELDRIN]
Not Active: IC50 [1] | IC50 [2] | IC50 [3] | IC50 (D(4) dopamine receptor) | IC50 [4] | IC50 [5] | IC50 [6] | Ki [6] | IC50 [7]

CCN1CCN(c2cc3c(cc2F)c(=O)c(C(=O)O)cn3C2CC2)CC1 [ENROFLOXACIN]
Not Active: IC50 [1] | IC50 [2] | IC50 [3] | IC50 (D(4) dopamine receptor) | IC50 [4] | IC50 [5] | IC50 [6] | Ki [6] | IC50 [7]

C[C@H]1C[C@H]2[C@@H]3CCC4=CC(=O)C=C[C@]4(C)[C@@]3(F)[C@@H](O)C[C@]2(C)[C@@]1(O)C(=O)CO [BETAMETHASONE]
Not Active: IC50 [1] | IC50 [2] | IC50 [3] | IC50 (D(4) dopamine receptor) | IC50 [4] | IC50 [5] | IC50 [6] | Ki [6] | IC50 [7]

OC[C@H]1O[C@@H]2O[C@H]3[C@H](O)[C@@H](O)[C@@H](O[C@H]4[C@H](O)[C@@H](O)[C@@H](O[C@H]5[C@H](O)[C@@H](O)[C@@H](O[C@H]6[C@H](O)[C@@H](O)[C@@H](O[C@H]7[C@H](O)[C@@H](O)[C@@H](O[C@H]8[C@H](O)[C@@H](O)[C@@H](O[C@H]1[C@H](O)[C@H]2O)O[C@@H]8CO)O[C@@H]7CO)O[C@@H]6CO)O[C@@H]5CO)O[C@@H]4CO)O[C@@H]3CO [BETADEX]
Not Active: IC50 [1] | IC50 [2] | IC50 [3] | IC50 (D(4) dopamine receptor) | IC50 [4] | IC50 [5] | IC50 [6] | Ki [6] | IC50 [7]

c1ccc(Cn2ccnc2)cc1
Not Active: IC50 [1] | IC50 [2] | IC50 [3] | IC50 (D(4) dopamine receptor) | IC50 [4] | IC50 [5] | IC50 [6] | Ki [6] | IC50 [7]

C=CCN1CC[C@]23c4c5ccc(O)c4O[C@H]2/C(=N/N=C2\CC[C@@]4(O)[C@H]6Cc7ccc(O)c8c7[C@@]4(CCN6CC=C)[C@H]2O8)CC[C@@]3(O)[C@H]1C5 [NALOXONAZINE]
Not Active: IC50 [1] | IC50 [2] | IC50 [3] | IC50 (D(4) dopamine receptor) | IC50 [4] | IC50 [5] | IC50 [6] | Ki [6] | IC50 [7]

CCCCCCNC(=O)n1cc(F)c(=O)[nH]c1=O [CARMOFUR]
Not Active: IC50 [1] | IC50 [2] | IC50 [3] | IC50 (D(4) dopamine receptor) | IC50 [4] | IC50 [5] | IC50 [6] | Ki [6] | IC50 [7]

OC[C@H]1O[C@@H]2O[C@H]3[C@H](O)[C@@H](O)[C@@H](O[C@H]4[C@H](O)[C@@H](O)[C@@H](O[C@H]5[C@H](O)[C@@H](O)[C@@H](O[C@H]6[C@H](O)[C@@H](O)[C@@H](O[C@H]7[C@H](O)[C@@H](O)[C@@H](O[C@H]1[C@H](O)[C@H]2O)O[C@@H]7CO)O[C@@H]6CO)O[C@@H]5CO)O[C@@H]4CO)O[C@@H]3CO [ALFADEX]
Not Active: IC50 [1] | IC50 [2] | IC50 [3] | IC50 (D(4) dopamine receptor) | IC50 [4] | IC50 [5] | IC50 [6] | Ki [6] | IC50 [7]

CC(C)NCC(O)COc1ccc(CC(N)=O)cc1 (stereo unspecified) [ATENOLOL]
Not Active: IC50 [1] | IC50 [2] | IC50 [3] | IC50 (D(4) dopamine receptor) | IC50 [4] | IC50 [5] | IC50 [6] | Ki [6] | IC50 [7]

Source: ChEMBL document CHEMBL1909046, “DrugMatrix in vitro pharmacology data”
